# Measurements from ChEMBL document CHEMBL3784990, “Synthesis and in vitro anticancer evaluation of some 4,6-diamino-1,3,5-triazine-2-carbohydrazides as Rad6 ubiquitin conjugating enzyme inhibitors” (Bioorg Med Chem Lett, 2016).
# pIC50: −log10 of the molar value. The source made the active and inactive calls. No cut-off for these calls is given here.
# How the values were obtained:
# [1] = Cytotoxicity against human OV90 cells after 72 hrs by MTS assay; assay type: functional, cell-based; settings: OV-90, 72 h
# [2] = tested on: A2780; assay: Cytotoxicity against human A2780 cells after 72 hrs by MTS assay; assay type: functional, cell-based; settings: A2780, 72 h
# [3] = tested on: MCF7; assay: Cytotoxicity against human MCF7 cells after 72 hrs by MTS assay; assay type: functional, cell-based; settings: MCF7, 72 h
# [4] = tested on: MDA-MB-231; assay: Cytotoxicity against human MDA-MB-231 cells after 72 hrs by MTS assay; assay type: functional, cell-based; settings: MDA-MB-231, 72 h
# [5] = tested on: A549; assay: Cytotoxicity against human A549 cells after 72 hrs by MTS assay; assay type: functional, cell-based; settings: A549, 72 h
# [6] = Cytotoxicity against human H1299 cells after 72 hrs by MTS assay; assay type: functional, cell-based; settings: NCI-H1299, 72 h
# [7] = tested on: HT-29; assay: Cytotoxicity against human HT-29 cells after 72 hrs by MTS assay; assay type: functional, cell-based; settings: HT-29, 72 h
# [8] = target: Ubiquitin-conjugating enzyme E2 B (Homo sapiens) (UniProt P63146); assay: Inhibition of human recombinant Rad6B assessed as suppression of Rad6B conjugation to ubiquitin at 25 nM pre-incubated for 1 hr by Western blot analysis
# Chain of Ubiquitin-conjugating enzyme E2 B (Homo sapiens) (P63146 whole entry): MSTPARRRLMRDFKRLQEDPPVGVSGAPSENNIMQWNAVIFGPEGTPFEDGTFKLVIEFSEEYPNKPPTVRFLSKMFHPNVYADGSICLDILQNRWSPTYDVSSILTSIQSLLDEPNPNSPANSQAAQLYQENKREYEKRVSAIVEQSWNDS
# [9] = target: Ubiquitin-conjugating enzyme E2 B (Homo sapiens) (UniProt P63146); assay: Inhibition of human recombinant Rad6B assessed as suppression of H2A substrate ubiquitination at 25 nM pre-incubated for 1 hr before H2A addition by Western blot analysis
inhibition [8],inhibition [9],Compound,pIC50 [1],pIC50 [2],pIC50 [3],pIC50 [4],pIC50 [5],pIC50 [6],pIC50 [7]
Active,,COc1ccccc1Nc1nc(N)nc(C(=O)NN)n1,4.05,5.25,4.93,4.80,5.12,4.30,5.07
Active,,COc1ccccc1Nc1nc(Nc2ccccc2OC)nc(C(=O)NNc2ccccc2)n1,5.00,5.30,5.14,5.41,5.16,4.59,5.05
Active,Active,Nc1nc(COC(=O)c2ccc([N+](=O)[O-])cc2)nc(Nc2ccccc2)n1,4.22,5.11,5.30,5.34,5.14,4.35,5.08
Active,Active,Cc1ccc(Nc2nc(Nc3ccc(C)cc3)nc(C(=O)NNc3ccccc3)n2)cc1,5.30,5.44,5.38,5.46,4.94,4.66,5.28
Active,,NNC(=O)c1nc(N)nc(Nc2ccc(Cl)cc2)n1,4.07,4.44,5.06,4.61,5.12,4.52,5.34
Active,Active,COc1ccc(Nc2nc(Nc3ccc(OC)cc3)nc(C(=O)NNc3ccccc3)n2)cc1,4.92,5.20,5.14,5.38,4.97,5.30,5.24
Active,,Cc1ccc(Nc2nc(N)nc(C(=O)NN)n2)cc1,4.22,5.26,4.80,4.90,5.03,4.40,5.35
Active,,COc1ccc(Nc2nc(N)nc(C(=O)NN)n2)cc1,4.10,4.83,5.21,5.12,5.28,4.19,5.27
Active,Active,O=C(NNc1ccccc1)c1nc(Nc2ccc(Cl)cc2)nc(Nc2ccc(Cl)cc2)n1,4.22,5.09,5.38,5.46,5.11,4.82,5.39
Active,Active,O=C(NNc1ccccc1)c1nc(Nc2ccccc2)nc(Nc2ccccc2)n1,5.10,5.15,5.22,5.60,4.84,4.96,5.02
Active,,NNC(=O)c1nc(N)nc(Nc2ccccc2)n1,4.12,5.14,5.23,5.59,5.11,4.19,5.48
